Biological target: T1, PDE5A1 (Homo sapiens, UniProt O76074)
T1 construct: from tissue; host or cells: human platelets from fresh donor blood (10,000 x g supernatant of sonicated lysate)
Test: Inhibition of type 5 phosphodiesterase (PDE5) activity, modified SPA test with human platelet lysate
Type: biochemical
Conditions: 0.5 μM cGMP, read-out: PDE5A1 inhibitory values [measured as −log IC50 (mol/l)] (converted)
In short: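 Enzyme source is lysate from human platelets (10,000 g supernatant). Compound preincubated 5 min at 37° C in Tris pH 7.4 containing 1 μM motapizone and 10 nM of a PDE2 inhibitor. Reaction started with 0.5 μM cGMP ([3H] tracer) and run 15 min; SPA read-out, IC50 by non-linear regression.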

IC50, < 1 nM:
CCC(=O)N1CCC(NC(=O)c2c(C)[nH]c3c(-c4cc(OC)c(F)cc4OCC4CC4)ncnc23)CC1 [Example E103, 4-[2-(cyclopropylmethoxy)-4-fluoro-5-methoxyphenyl]-6-methyl-N-(1-propionylpiperidin-4-yl)-5H-pyrrolo[3,2-d]pyrimidine-7-carboxamide]
COCC(=O)N1CCC(NC(=O)c2c(C)[nH]c3c(-c4cc(OC)c(F)cc4OCC4CC4)ncnc23)CC1 [Example E104, 4-[2-(Cyclopropylmethoxy)-4-fluoro-5-methoxyphenyl]-N-[1-(methoxyacetyl)piperidin-4-yl]-6-methyl-5H-pyrrolo[3,2-d]pyrimidine-7-carboxamide]
CCOC(=O)N1CCC(NC(=O)c2c(C)[nH]c3c(-c4cc(OC)c(F)cc4OCC4CC4)ncnc23)CC1 [Example E105, Ethyl 4-[({4-[2-(cyclopropylmethoxy)-4-fluoro-5-methoxyphenyl]-6-methyl-5H-pyrrolo[3,2-d]pyrimidin-7-yl}carbonyl)amino]piperidine-1-carboxylate]
COc1cc(-c2ncnc3c(C(=O)N[C@H]4CC[C@H](NC(C)=O)CC4)c(C)[nH]c23)c(OCC2CC2)cc1F [Example E106, N-(trans-4-Acetamidocyclohexyl)-4-[2-(cyclopropylmethoxy)-4-fluoro-5-methoxyphenyl]-6-methyl-5H-pyrrolo[3,2-d]pyrimidine-7-carboxamide]
CCC(=O)N[C@H]1CC[C@H](NC(=O)c2c(C)[nH]c3c(-c4cc(OC)c(F)cc4OCC4CC4)ncnc23)CC1 [Example E107, 4-[2-(Cyclopropylmethoxy)-4-fluoro-5-methoxyphenyl]-6-methyl-N-[trans-4-(propionylamino)cyclohexyl]-5H-pyrrolo[3,2-d]pyrimidine-7-carboxamide]
COCC(=O)N[C@H]1CC[C@H](NC(=O)c2c(C)[nH]c3c(-c4cc(OC)c(F)cc4OCC4CC4)ncnc23)CC1 [Example E108, 4-[2-(Cyclopropylmethoxy)-4-fluoro-5-methoxyphenyl]-N-{trans-4-[(methoxyacetyl)amino]cyclohexyl}-6-methyl-5H-pyrrolo[3,2-d]pyrimidine-7-carboxamide]
CCOC(=O)N[C@H]1CC[C@H](NC(=O)c2c(C)[nH]c3c(-c4cc(OC)c(F)cc4OCC4CC4)ncnc23)CC1 [Example E109, Ethyl {trans-4-[({4-[2-(cyclopropylmethoxy)-4-fluoro-5-methoxyphenyl]-6-methyl-5H-pyrrolo[3,2-d]pyrimidin-7-yl}carbonyl)amino]cyclohexyl}carbamate]
COc1cc(-c2ncnc3c(C(=O)N[C@H]4CC[C@@H](NC(C)=O)CC4)c(C)[nH]c23)c(OCC2CC2)cc1F [Example E110, N-(cis-4-Acetamidocyclohexyl)-4-[2-(cyclopropylmethoxy)-4-fluoro-5-methoxyphenyl]-6-methyl-5H-pyrrolo[3,2-d]pyrimidine-7-carboxamide]
CCC(=O)N[C@H]1CC[C@@H](NC(=O)c2c(C)[nH]c3c(-c4cc(OC)c(F)cc4OCC4CC4)ncnc23)CC1 [Example E111, 4-[2-(Cyclopropylmethoxy)-4-fluoro-5-methoxyphenyl]-6-methyl-N-[cis-4-(propionylamino)cyclohexyl]-5H-pyrrolo[3,2-d]pyrimidine-7-carboxamide]
COCC(=O)N[C@H]1CC[C@@H](NC(=O)c2c(C)[nH]c3c(-c4cc(OC)c(F)cc4OCC4CC4)ncnc23)CC1 [Example E112, 4-[2-(Cyclopropylmethoxy)-4-fluoro-5-methoxyphenyl]-N-{cis-4-[(methoxyacetyl)amino]cyclohexyl}-6-methyl-5H-pyrrolo[3,2-d]pyrimidine-7-carboxamide]
CC(=O)N1CCC(NC(=O)c2c(C)[nH]c3c(-c4cc(C)c(F)cc4OCC4CC4)ncnc23)CC1 [Example E119, N-(1-Acetylpiperidin-4-yl)-4-[2-(cyclopropylmethoxy)-4-fluoro-5-methylphenyl]-6-methyl-5H-pyrrolo[3,2-d]pyrimidine-7-carboxamide]
CCC(=O)N1CCC(NC(=O)c2c(C)[nH]c3c(-c4cc(C)c(F)cc4OCC4CC4)ncnc23)CC1 [Example E120, 4-[2-(Cyclopropylmethoxy)-4-fluoro-5-methylphenyl]-6-methyl-N-(1-propanoylpiperidin-4-yl)-5H-pyrrolo[3,2-d]pyrimidine-7-carboxamide]
COCC(=O)N1CCC(NC(=O)c2c(C)[nH]c3c(-c4cc(C)c(F)cc4OCC4CC4)ncnc23)CC1 [Example E121, 4-[2-(Cyclopropylmethoxy)-4-fluoro-5-methylphenyl]-N-[1-(methoxyacetyl)piperidin-4-yl]-6-methyl-5H-pyrrolo[3,2-d]pyrimidine-7-carboxamide]
CC(=O)N[C@H]1CC[C@H](NC(=O)c2c(C)[nH]c3c(-c4cc(C)c(F)cc4OCC4CC4)ncnc23)CC1 [Example E122, N-[trans-4-(Acetylamino)cyclohexyl]-4-[2-(cyclopropylmethoxy)-4-fluoro-5-methylphenyl]-6-methyl-5H-pyrrolo[3,2-d]pyrimidine-7-carboxamide]
CCC(=O)N[C@H]1CC[C@H](NC(=O)c2c(C)[nH]c3c(-c4cc(C)c(F)cc4OCC4CC4)ncnc23)CC1 [Example E123, 4-[2-(Cyclopropylmethoxy)-4-fluoro-5-methylphenyl]-6-methyl-N-[trans-4-(propanoylamino)cyclohexyl]-5H-pyrrolo[3,2-d]pyrimidine-7-carboxamide]
COCC(=O)N[C@H]1CC[C@H](NC(=O)c2c(C)[nH]c3c(-c4cc(C)c(F)cc4OCC4CC4)ncnc23)CC1 [Example E124, 4-[2-(Cyclopropylmethoxy)-4-fluoro-5-methylphenyl]-N-{trans-4-[(methoxyacetyl)amino]cyclohexyl}-6-methyl-5H-pyrrolo[3,2-d]pyrimidine-7-carboxamide]
CC(=O)N[C@H]1CC[C@@H](NC(=O)c2c(C)[nH]c3c(-c4cc(C)c(F)cc4OCC4CC4)ncnc23)CC1 [Example E125, N-[cis-4-(Acetylamino)cyclohexyl]-4-[2-(cyclopropylmethoxy)-4-fluoro-5-methylphenyl]-6-methyl-5H-pyrrolo[3,2-d]pyrimidine-7-carboxamide]
CCC(=O)N[C@H]1CC[C@@H](NC(=O)c2c(C)[nH]c3c(-c4cc(C)c(F)cc4OCC4CC4)ncnc23)CC1 [Example E126, 4-[2-(Cyclopropylmethoxy)-4-fluoro-5-methylphenyl]-6-methyl-N-[cis-4-(propanoylamino)cyclohexyl]-5H-pyrrolo[3,2-d]pyrimidine-7-carboxamide]
COCC(=O)N[C@H]1CC[C@@H](NC(=O)c2c(C)[nH]c3c(-c4cc(C)c(F)cc4OCC4CC4)ncnc23)CC1 [Example E127, 4-[2-(Cyclopropylmethoxy)-4-fluoro-5-methylphenyl]-N-{cis-4-[(methoxyacetyl)amino]cyclohexyl}-6-methyl-5H-pyrrolo[3,2-d]pyrimidine-7-carboxamide]
COc1cc(OCC2CC2)c(-c2ncnc3c(C(=O)NC4CCN(C(C)=O)CC4)c(C)[nH]c23)cc1F [Example E131, N-(1-Acetylpiperidin-4-yl)-4-[2-(cyclopropylmethoxy)-5-fluoro-4-methoxyphenyl]-6-methyl-5H-pyrrolo[3,2-d]pyrimidine-7-carboxamide]
CCC(=O)N1CCC(NC(=O)c2c(C)[nH]c3c(-c4cc(F)c(OC)cc4OCC4CC4)ncnc23)CC1 [Example E132, 4-[2-(Cyclopropylmethoxy)-5-fluoro-4-methoxyphenyl]-6-methyl-N-(1-propionylpiperidin-4-yl)-5H-pyrrolo[3,2-d]pyrimidine-7-carboxamide]
COCC(=O)N1CCC(NC(=O)c2c(C)[nH]c3c(-c4cc(F)c(OC)cc4OCC4CC4)ncnc23)CC1 [Example E133, 4-[2-(Cyclopropylmethoxy)-5-fluoro-4-methoxyphenyl]-N-[1-(methoxyacetyl)piperidin-4-yl]-6-methyl-5H-pyrrolo[3,2-d]pyrimidine-7-carboxamide]
CCOC(=O)N1CCC(NC(=O)c2c(C)[nH]c3c(-c4cc(F)c(OC)cc4OCC4CC4)ncnc23)CC1 [Example E134, Ethyl 4-[({4-[2-(cyclopropylmethoxy)-5-fluoro-4-methoxyphenyl]-6-methyl-5H-pyrrolo[3,2-d]pyrimidin-7-yl}carbonyl)amino]piperidine-1-carboxylate]
COc1cc(OCC2CC2)c(-c2ncnc3c(C(=O)N[C@H]4CC[C@H](NC(C)=O)CC4)c(C)[nH]c23)cc1F [Example E135, N-(trans-4-Acetamidocyclohexyl)-4-[2-(cyclopropylmethoxy)-5-fluoro-4-methoxyphenyl]-6-methyl-5H-pyrrolo[3,2-d]pyrimidine-7-carboxamide]
CCC(=O)N[C@H]1CC[C@H](NC(=O)c2c(C)[nH]c3c(-c4cc(F)c(OC)cc4OCC4CC4)ncnc23)CC1 [Example E136, 4-[2-(Cyclopropylmethoxy)-5-fluoro-4-methoxyphenyl]-6-methyl-N-[trans-4-(propionylamino)cyclohexyl]-5H-pyrrolo[3,2-d]pyrimidine-7-carboxamide]
COCC(=O)N[C@H]1CC[C@H](NC(=O)c2c(C)[nH]c3c(-c4cc(F)c(OC)cc4OCC4CC4)ncnc23)CC1 [Example E137, 4-[2-(Cyclopropylmethoxy)-5-fluoro-4-methoxyphenyl]-N-{trans-4-[(methoxyacetyl)amino]cyclohexyl}-6-methyl-5H-pyrrolo[3,2-d]pyrimidine-7-carboxamide]

Reference: patent US9376442B2, “Methylpyrrolopyrimidinecarboxamides” (Takeda GmbH, priority 2009, dated 2016)
